PMC6668378, “Maturation of coagulation factor IX during Xase formation as deduced using factor VIII‐derived peptides” (FEBS Open Bio, 2019)
Where two headings read alike, the source gives them in different places. Square brackets hold non-standard residues; d marks the D form. Ends that are not written are not given here. Peptide text beside a SMILES is read from it. sY = N[C@@H](Cc1ccc(OS(=O)(=O)O)cc1)C(=O)O

Key:
FIX wt = molecular target: T1, FIX wt (Homo sapiens, UniProt P00740); test: SAM5 binding of zymogenic FIX wt to immobilized FVIIIa-derived peptide; details: no additive; peptide immobilized on carboxymethyl-dextran chip, FIX wt 10-250 nM in mobile phase, 40 μL/min, 4 min association, 4 min dissociation, one-to-one two-state model; 20 mM HEPES pH 7.5, 150 mM NaCl, 5 mM CaCl2
T1 construct: made in house; host or cells: Escherichia coli
T1 sequence (P00740 29-461 limits assumed): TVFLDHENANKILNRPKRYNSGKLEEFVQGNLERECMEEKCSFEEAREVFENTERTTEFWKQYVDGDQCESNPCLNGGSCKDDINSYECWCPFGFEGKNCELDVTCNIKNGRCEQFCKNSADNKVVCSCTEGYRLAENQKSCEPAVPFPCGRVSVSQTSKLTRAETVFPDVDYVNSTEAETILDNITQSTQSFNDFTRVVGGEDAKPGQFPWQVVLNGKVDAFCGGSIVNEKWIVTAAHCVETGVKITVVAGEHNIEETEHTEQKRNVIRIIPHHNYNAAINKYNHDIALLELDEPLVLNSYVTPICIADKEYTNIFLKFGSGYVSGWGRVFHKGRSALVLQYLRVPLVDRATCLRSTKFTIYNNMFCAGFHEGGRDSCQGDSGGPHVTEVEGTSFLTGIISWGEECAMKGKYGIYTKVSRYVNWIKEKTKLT
Experimental: (§1) Factor IX protein variants were expressed in Escherichia coli, refolded, purified and activated as described elsewhere 8, 9, 10.
(§2) The factor VIII‐derived peptides Ser558‐Gln565 (SVDQRGNQ) and Lys713‐Arg740 (KHTGDsYsYEDSsYEDISAYLLSKNNAIEPR; sY: sulfotyrosine) were purchased from JPT Peptide Technologies. Quality was controlled by HPLC and mass spectrometry and confirmed to be of better than 90% homogeneity.
(§3) Prior to the chip calibration at 22 °C, the instrument was flushed with a flow rate of 40 μL·min^−1 for 5 to 10 min. Chip calibration was performed using the SAM5 program with gain of 180 and a phase difference of 0.363.
(§4) The SAM5 instrument with a dextran‐COOH‐coated gold chip (NanoTemper Technologies) was equilibrated using filtered and degassed PBS running buffer, and the chip was calibrated as described above. 1‐ethyl‐3‐(3‐dimethylaminopropyl) carbodiimide (EDC) and N‐hydroxysuccinimide (NHS) were dissolved in ddH2O to a final concentration of 400 mM and 100 mM, respectively. To activate the chip, EDC and NHS were mixed at equal volume, resulting in the final concentrations of 200 mM EDC and 50 mM NHS. […]
(§5) Firstly, pumps were washed using filtered and degassed running buffer (20 mM HEPES pH 7.5, 150 mM NaCl, 5 mM CaCl2). […] The sensogram SAM5 data were exported to Origin and TraceDrawer, allowing to analyse and quantify the protein binding affinities, as described in the SAM5 user manual. […]

FIXa wt = molecular target: T2, FIXa wt (Homo sapiens, UniProt P00740); test: SAM5 binding of activated FIXa wt to immobilized FVIIIa-derived peptide; details: no additive, FIXa wt as analyte 10-250 nM, pH 7.5, 5 mM CaCl2
T2 construct: made in house; host or cells: Escherichia coli
T2 sequence (P00740 227-461 limits assumed): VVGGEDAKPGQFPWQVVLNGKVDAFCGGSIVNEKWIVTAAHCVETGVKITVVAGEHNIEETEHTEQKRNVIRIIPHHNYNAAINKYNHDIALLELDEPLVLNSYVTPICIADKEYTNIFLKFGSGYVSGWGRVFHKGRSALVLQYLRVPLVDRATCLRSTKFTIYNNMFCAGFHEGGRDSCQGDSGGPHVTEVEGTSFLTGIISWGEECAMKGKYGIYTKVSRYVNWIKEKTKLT
T2 sequence (P00740 47-191 partner limits assumed): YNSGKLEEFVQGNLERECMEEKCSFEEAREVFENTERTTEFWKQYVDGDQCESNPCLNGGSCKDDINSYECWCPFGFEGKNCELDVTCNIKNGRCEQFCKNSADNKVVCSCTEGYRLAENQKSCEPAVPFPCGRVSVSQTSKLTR
Experimental: as §1, §2, §3, §4
(§6) Firstly, pumps were washed using filtered and degassed running buffer (20 mM HEPES pH 7.5, 150 mM NaCl, 5 mM CaCl2). […] The sensogram SAM5 data were exported to Origin and TraceDrawer, allowing to analyse and quantify the protein binding affinities, as described in the SAM5 user manual.

FIX‐R170L = molecular target: T3, FIX‐R170L (Homo sapiens, UniProt P00740, R384L); test: SAM5 binding of zymogenic FIX-R170L (Padua) to immobilized FVIIIa-derived peptide; details: no additive, FIX-R170L as analyte 10-250 nM, pH 7.5, 5 mM CaCl2
T3 construct: made in house; host or cells: Escherichia coli
T3 sequence (P00740 133-461 R384L limits assumed): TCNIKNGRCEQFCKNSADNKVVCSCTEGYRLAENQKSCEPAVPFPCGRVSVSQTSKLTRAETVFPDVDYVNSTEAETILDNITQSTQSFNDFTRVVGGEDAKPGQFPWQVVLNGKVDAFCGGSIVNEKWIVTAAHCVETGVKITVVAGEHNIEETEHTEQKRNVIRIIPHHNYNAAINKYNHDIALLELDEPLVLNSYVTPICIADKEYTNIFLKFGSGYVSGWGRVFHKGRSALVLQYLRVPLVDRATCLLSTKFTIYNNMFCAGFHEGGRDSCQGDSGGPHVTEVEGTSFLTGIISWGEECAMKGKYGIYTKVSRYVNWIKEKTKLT
Experimental: as §1, §2, §3, §4, §6

FIXa R170L = molecular target: T4, FIXa R170L (Homo sapiens, UniProt P00740, R384L); test: SAM5 binding of activated FIXa R170L (Padua) to immobilized FVIIIa-derived peptide; details: no additive, FIXa R170L as analyte 10-250 nM, pH 7.5, 5 mM CaCl2
T4 construct: made in house; host or cells: Escherichia coli
T4 sequence (P00740 227-461 R384L): as the sequence (P00740 227-461 limits assumed) above, with R158L counted along it
T4 sequence (P00740 47-191 partner limits assumed): as the sequence (P00740 47-191 partner limits assumed) above
Experimental: as §1, §2, §3, §4, §6

[1] = system: activation peptide of factor IX and factor X; details: cited from earlier work; for affinity towards activation peptide binding site relative to active site: factor IX and factor X
From the text: In the protease factors IX and X, proteolytic activation at Arg180 (FX: Arg194) and Arg145 releases an activation peptide, triggering a conformational disorder‐to‐order transition in the serine protease domain (Figs 2 and S1). The activation peptide is positioned between the light chain (consisting of the N‐terminal Gla, EGF1 and EGF2 domains) and the trypsin‐like serine protease domain. Light and heavy chains remain covalently linked via a disulfide bond. In both factor IX and factor X, the activation peptide harbours an intriguing high‐affinity binding site for benzamidine/arginine, exceedin ...

[2] = system: coagulation factor VIII (nonactivated FVIII); test: Surface acoustic wave (SAM5) binding of FIX(a) variants to immobilized factor VIII
Experimental: as §3
as §4, with “NHS. The mixture was rapidly placed into position A1 of the tray holder. If carried out properly, the baseline will increase. Subsequently, the ligand (protein ligands at 250–500 nM concentration, peptidic ligands at 100 μM to 1 mM concentration) was placed into the tray holder at position A1. The binding of the ligand to the dextran matrix is based on electrostatic interactions.” for “NHS.”
as §5

[3] = molecular target: activated factor VIIIa (FVIIIa); test: Surface acoustic wave (SAM5) binding of FIX(a) variants to immobilized activated factor VIIIa; details: for Kd: FVIIIa immobilized on dextran chip, SAM5 Blue surface acoustic wave, analyte 10-250 nM, 40 μL/min, 20 mM HEPES pH 7.5, 150 mM NaCl, 5 mM CaCl2, read-out: Kd, interaction with activated factor VIIIa
Experimental: pro‐FVIII was generously provided by Baxter Biosciences (Vienna, Austria). Human thrombin was purchased from Sigma. For activation, 100 μg FVIII lyophilisate was dissolved in ddH2O and spin‐dialysed by repeated concentration in 30 kDa cut‐off Amicon concentrators to a final concentration of ~ 0.2 mg·mL^−1. FVIII was activated by thrombin similar to protocols described elsewhere 11, 12. Briefly, thrombin was dissolved in 20 mM Hepes, pH 7.5, 100 mM NaCl and 5 mM CaCl2. 1 unit of thrombin was added to 1000 units of FVIII (100 μg) and incubated for 15 min at 37 °C without shaking. The protein mixture was then dialysed by in total four centrifugation steps against a 4 °C cold wash buffer consisting of 50 mM Hepes, pH 7.4, 300 mM NaCl and 2.5 mM CaCl2. The reaction was stopped after the second concentration step by adding 20 μL 50 mM PMSF to inhibit thrombin. The activation of FVIIIa was controlled by SDS/PAGE to observe the A1, A2 and A3‐C1‐C2 at ~55 kDa, 40 kDa and 70 kDa, respectively.
as §3
as §4, with “NHS. The mixture was rapidly placed into position A1 of the tray holder.” for “NHS.”
as §5

Row | Compound | Kd (FIX wt) [nM] | Kd (FIXa wt) [nM] | Kd (FIX‐R170L) [nM] | Kd (FIXa R170L) [nM] | affinity towards activation peptide binding site relative to active site [1] | also measured
1 | CC[C@H](C)[C@H](NC(=O)[C@H](C)NC(=O)[C@H](CC(N)=O)NC(=O)[C@H](CC(N)=O)NC(=O)[C@H](CCCCN)NC(=O)[C@H](CO)NC(=O)[C@H](CC(C)C)NC(=O)[C@H](CC(C)C)NC(=O)[C@H](Cc1ccc(O)cc1)NC(=O)[C@H](C)NC(=O)[C@H](CO)NC(=O)[C@@H](NC(=O)[C@H](CC(=O)O)NC(=O)[C@H](CCC(=O)O)NC(=O)[C@H](Cc1ccc(OS(=O)(=O)O)cc1)NC(=O)[C@H](CO)NC(=O)[C@H](CC(=O)O)NC(=O)[C@H](CCC(=O)O)NC(=O)[C@H](Cc1ccc(OS(=O)(=O)O)cc1)NC(=O)[C@H](Cc1ccc(OS(=O)(=O)O)cc1)NC(=O)[C@H](CC(=O)O)NC(=O)CNC(=O)[C@@H](NC(=O)[C@H](Cc1c[nH]cn1)NC(=O)[C@@H](N)CCCCN)[C@@H](C)O)[C@@H](C)CC)C(=O)N[C@@H](CCC(=O)O)C(=O)N1CCC[C@H]1C(=O)N[C@@H](CCCNC(=N)N)C(=O)O [a2 peptide, KHTGDsYsYEDSsYEDISAYLLSKNNAIEPR] (H-KHTGD[sY][sY]EDS[sY]EDISAYLLSKNNAIEPR-OH) | 65.8 ± 23.5 | 98.9 ± 11.6 | 52.8 ± 9.75 | 103 ± 16.6 | – | –
2 | basic pancreatic trypsin inhibitor [BPTI] | – | – | – | – | – | binding to activation peptide versus active site ([1]; factor IX/X, background statement, no reference given): do not bind to the activation peptide but to the active site exclusively
3 | SVDQRGNQ [558‐loop, SVDQRGNQ] | 172 ± 37.6 | 457 ± 121 | 173 ± 57.1 | 374 ± 138 | – | –
4 | FIX wt: recombinant zymogenic factor IX wild-type, expressed in Escherichia coli and refolded | – | – | – | – | – | affinity to cofactor VIII relative to activated FIXa wt ([2]; FIX wt versus FIXa wt): more than 10 fold; Kd ([2]; analyte incubated with 1 μM aprotinin (BPTI), FVIII immobilized on dextran chip, SAM5 Blue surface acoustic wave, analyte 10-250 nM, 40 μL/min, 20 mM HEPES pH 7.5, 150 mM NaCl, 5 mM CaCl2, read-out: Kd, interaction with nonactivated factor VIII): 65.8 ± 21.2 nM; Kd ([3]; analyte incubated with 1 μM aprotinin (BPTI)): 72.2 ± 60.2 nM; Kd ([3]; analyte incubated with 1 mM benzamidine): 83.6 ± 140 nM; higher affinity of zymogenic FIX wt than FIXa wt for activated factor VIIIa ([3]; in the presence of both benzamidine and BPTI): confirmed also when activated factor VIIIa was used as a binding partner
5 | N=C(N)NCCC[C@H](N)C(=O)O [arginine] | – | – | – | – | exceeding the affinity towards the active site by an order of magnitude | –
6 | N=C(N)c1ccccc1 [benzamidine] | – | – | – | – | exceeding the affinity towards the active site by an order of magnitude | –
